What was measured:
Type in all cases: cell-based
S. aureus ROSE (MP) = test: MIC, agar dilution method; conditions: 18 hours at 35° C.
E. coli UBMS 89-1 Tet M = test: microbe, parasite or virus in culture; conditions: Escherichia coli, UBMS891TETM, 18 h, 18 hours at 35° C.
[1] = test system: X. maltophilia NEMC 87210; test: MIC, agar dilution method; conditions: Stenotrophomonas maltophilia, NEMC87210, 18 h, 18 hours at 35° C.
E. coli PRP1 Tet A = test: microbe, parasite or virus in culture; conditions: Escherichia coli, PRP1TETA, 18 h, 18 hours at 35° C.
[2] = test system: S. aureus UBMS 90-1 Tet M; test: microbe, parasite or virus in culture; conditions: 18 hours at 35° C.
E. coli BAJ9003 IMP MUT = test: microbe, parasite or virus in culture; conditions: 18 hours at 35° C.
[3] = test system: S. aureus UBMS 88-5 Tet M; test: microbe, parasite or virus in culture; conditions: Staphylococcus aureus, UBMS885TETM, 18 h
E. coli J2175 = test: MIC, agar dilution method; conditions: Escherichia coli, 18 hours at 35° C., read-out: MIC
[4] = test system: S. hemolyticus AVHAH 88-3; test: MIC, agar dilution method; conditions: Streptococcus pyogenes, AVHAH883, 18 h, 18 hours at 35° C.
S. aureus IVES 1 983 = test: MIC, agar dilution method; conditions: Staphylococcus aureus, IVES1983, 18 h
E. coli UBMS 90-5 sens = test: MIC, agar dilution method; conditions: Escherichia coli, UBMS905SENS, 18 hours at 35° C., read-out: MIC
Enterococcus 12201 = test: MIC, agar dilution method; conditions: 18 hours at 35° C.
[5] = test system: Ps. acruginosa ATCC 27853; test: MIC, agar dilution method; conditions: Ps. acruginosa ATCC 27853; 18 hours at 35° C.; read-out: MIC
E. coli UBMS 90-4 Tet M = test: microbe, parasite or virus in culture; conditions: Escherichia coli, UBMS904TETM, 18 h, 18 hours at 35° C.
E. coli J3272 Tet sens = test: MIC, agar dilution method; conditions: Escherichia coli, J3272TETSENS, 18 hours at 35° C.
[6] = test system: E. coli UBMS 89-2 Tet sens; test: MIC, agar dilution method; conditions: Escherichia coli, UBMS892TETSENS, 18 h, 18 hours at 35° C., read-out: MIC
S. aureus NEMC 8769 = test: MIC, agar dilution method; conditions: Staphylococcus aureus, NEMC8769, 18 h, S. aureus NEMC 8769; 18 hours at 35° C.
S. mariescens FPOR 8733 = test: MIC, agar dilution method; conditions: 18 h, 18 hours at 35° C.
E. coli ATCC 25922 = test: MIC, agar dilution method; conditions: Escherichia coli, ATCC25922, 18 hours at 35° C., read-out: MIC
[7] = test system: E. coli MC 4100 TNIOC Tet B; test: microbe, parasite or virus in culture; conditions: Escherichia coli, 18 h, 18 hours at 35° C.
E. coli J3272 Tet D = test: microbe, parasite or virus in culture; conditions: Escherichia coli, J3272TETD, 18 h
S. aureus SMITH (MP) = test: MIC, agar dilution method; conditions: 18 hours at 35° C.
E. coli UBMS 88-1 Tet B = test: microbe, parasite or virus in culture; conditions: Escherichia coli, UBMS881TETB, 18 h, 18 hours at 35° C.
E. coli #311 (MP) = test: MIC, agar dilution method; conditions: Escherichia coli, 18 hours at 35° C., read-out: MIC
E. coli J3272 Tet C = test: microbe, parasite or virus in culture; conditions: Escherichia coli, J3272TETC, 18 h
S. aureus ATCC 29213 = test: MIC, agar dilution method; conditions: 18 hours at 35° C.
[8] = test system: S. aureus UBMS 88-7 Tet K; test: microbe, parasite or virus in culture; conditions: 18 hours at 35° C.
S. aureus UBMS 88-4 = test: MIC, agar dilution method; conditions: Staphylococcus aureus, UBMS884, 18 hours at 35° C., read-out: MIC
E. faecalis ATCC 29212 = test: MIC, agar dilution method; conditions: Enterococcus faecalis, ATCC29212, 18 hours at 35° C., read-out: MIC
S. aureus UBMS 90-3 = test: MIC, agar dilution method; conditions: Staphylococcus aureus, UBMS903; S. aureus UBMS 90-3; 18 hours at 35° C.; read-out: MIC
S. aureus IVES 2943 = test: MIC, agar dilution method; conditions: Staphylococcus aureus, IVES2943, 18 h
[9] = test system: S. aureus UBMS 90-2 Tet M; test: microbe, parasite or virus in culture; conditions: Staphylococcus aureus, UBMS902TETM, 18 h, 18 hours at 35° C.

## CN(C)CC(=O)Nc1c(Cl)cc2c(c1O)C(=O)C1=C(O)[C@]3(O)C(=O)C(C(N)=O)=C(O)[C@@H](N(C)C)C3CC1C2 (stereo partly drawn) [A, [4S-(4α,12aα)]-8-Chloro-4-(dimethylamino)-9-[[(dimethylamino)acetyl]amino]-1,4,4a,5,5a,6,11,12a-octahydro-3,10,12,12a-tetrahydroxy-1,11-dioxo-2-naphthacenecarboxamide disulfate]
S. aureus ROSE (MP)
  MIC: 16 µg/mL
E. coli UBMS 89-1 Tet M
  MIC: 0.5 µg/mL
[1]
  MIC: 2 µg/mL
E. coli PRP1 Tet A
  MIC: 4 µg/mL
[2]
  MIC: 0.5 µg/mL
E. coli BAJ9003 IMP MUT
  MIC: 0.25 µg/mL
[3]
  MIC: 0.25 µg/mL
E. coli J2175
  MIC: 1 µg/mL
[4]
  MIC: 1 µg/mL
S. aureus IVES 1 983
  MIC: 4 µg/mL
E. coli UBMS 90-5 sens
  MIC: 1 µg/mL
Enterococcus 12201
  MIC: 0.25 µg/mL
[5]
  MIC: > 32 µg/mL
E. coli UBMS 90-4 Tet M
  MIC: 1 µg/mL
E. coli J3272 Tet sens
  MIC: 1 µg/mL
[6]
  MIC: 2 µg/mL
S. aureus NEMC 8769
  MIC: 0.06 µg/mL
S. mariescens FPOR 8733
  MIC: 16 µg/mL
E. coli ATCC 25922
  MIC: 0.5 µg/mL
[7]
  MIC: 2 µg/mL
E. coli J3272 Tet D
  MIC: 0.5 µg/mL
S. aureus SMITH (MP)
  MIC: 0.25 µg/mL
E. coli UBMS 88-1 Tet B
  MIC: 2 µg/mL
E. coli #311 (MP)
  MIC: 0.5 µg/mL
E. coli J3272 Tet C
  MIC: 8 µg/mL
S. aureus ATCC 29213
  MIC: 0.03 µg/mL
[8]
  MIC: 2 µg/mL
S. aureus UBMS 88-4
  MIC: 0.12 µg/mL
E. faecalis ATCC 29212
  MIC: 0.12 µg/mL
S. aureus UBMS 90-3
  MIC: 0.12 µg/mL
S. aureus IVES 2943
  MIC: 4 µg/mL
[9]
  MIC: 0.5 µg/mL
